This note sets out measurements from ChEMBL document CHEMBL1201862, “PubChem BioAssay data set” (2004).

Each structure is given as a SMILES string.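 Test compounds were applied to cells in 96-well plates for 48 hours at 5 doses. GI50: concentration for 50% inhibition of growth.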 Calls of active or inactive are those of the source. Rule as the data show it: active = GI50 up to about 1.1 µM and inactive = higher. Some results are limits rather than exact numbers.

Some test systems named below: DU-145; A498; OVCAR-8; T47D; SK-MEL-2; SK-MEL-5; HL-60; U-251; OVCAR-3; HT-29; NCI-H226; M14; SK-MEL-28; NCI-H23; HOP-92; SR; SW-620; RXF 393; SNB-75; KM12.
Holding throughout (test): inhibition of tumour cell growth, NCI panel, 48 h

As to `CC(C)(C)OC(=O)NNCC(O)COc1ccccc1` (centres undefined), the GI50 in the assay with DU-145, in the assay on A498, in the assay with OVCAR-8, with T47D, with SK-MEL-2 and in the assay with SK-MEL-5 was > 100 µM (inactive) in each case. In addition, the GI50 was 0.0318 µM (active) in the assay with HL-60; > 100 µM (inactive) in the assay with U-251; > 100 µM (inactive) in the assay on OVCAR-3; > 100 µM (inactive) with HT-29; > 100 µM (inactive) in the assay on NCI-H226; > 100 µM (inactive) in the assay with M14. Besides, the GI50 in the assay with SK-MEL-28, in the assay with NCI-H23, with HOP-92, in the assay with SR, in the assay on SW-620 and in the assay on RXF 393 was > 100 µM (inactive) throughout.
On to `O=C1Nc2ccccc2/C1=N/NC(=S)N1CCCCC1`, for which the GI50 was 1.91 µM (inactive) in the assay with DU-145; 0.356 µM (active) with A498; 0.317 µM (active) with OVCAR-8; 5.94 µM (inactive) with T47D; 1.79 µM (inactive) in the assay with SK-MEL-2; 0.0667 µM (active) in the assay on SK-MEL-5. The GI50 was 1.52 µM (inactive) in the assay on SNB-75; 0.678 µM (active) in the assay with U-251; 0.145 µM (active) in the assay on OVCAR-3; 0.946 µM (active) in the assay with HT-29; 1.37 µM (inactive) in the assay with NCI-H226; 0.29 µM (active) with M14. Further, the GI50 was 2.17 µM (inactive) in the assay with SK-MEL-28; 1.39 µM (inactive) in the assay with NCI-H23; 2.25 µM (inactive) in the assay with HOP-92; 0.675 µM (active) with SR; 0.0841 µM (active) in the assay with KM12; 0.681 µM (active) in the assay with SW-620. Moreover, the GI50 in the assay with RXF 393 was 0.0906 µM (active).
Regarding `O=C1CC(CC(=O)c2ccc(Br)cc2)C(O)=C1C(=O)c1ccc(Br)cc1` (centres undefined), the GI50 in the assay on DU-145 is > 100 µM (inactive); in the assay with A498, 77.1 µM (inactive); with OVCAR-8, 99.8 µM (inactive); with T47D, 71.6 µM (inactive); with SK-MEL-2, > 100 µM (inactive); in the assay with SK-MEL-5, > 100 µM (inactive). For the same compound, the GI50 in the assay on HL-60 was > 100 µM (inactive); in the assay on U-251 it was 45.4 µM (inactive); in the assay on OVCAR-3, 32.6 µM (inactive); in the assay on HT-29, 49.2 µM (inactive); in the assay with NCI-H226, > 100 µM (inactive); in the assay with M14, 85.5 µM (inactive). The GI50 was > 100 µM (inactive) with SK-MEL-28; 87.7 µM (inactive) in the assay on NCI-H23; 30.1 µM (inactive) with HOP-92; 44.3 µM (inactive) in the assay with SR; 11.5 µM (inactive) in the assay on KM12; > 100 µM (inactive) in the assay with SW-620. Moreover, the GI50 with RXF 393 was > 100 µM (inactive).
On to `NS(=O)(=O)c1nnc(NSc2ccc([N+](=O)[O-])cc2)s1`, for which the GI50 in the assay on DU-145, in the assay with A498, with OVCAR-8, in the assay on T47D, in the assay with SK-MEL-2 and with SK-MEL-5 was > 100 µM (inactive) throughout. Also, the GI50 in the assay with U-251, with OVCAR-3, in the assay with NCI-H226, with M14, with SK-MEL-28 and in the assay with NCI-H23 was > 100 µM (inactive) throughout. Moreover, the GI50 with HOP-92 is > 100 µM (inactive); with SR, 59.6 µM (inactive); with KM12, > 10 µM (inactive); with SW-620, > 100 µM (inactive); with RXF 393 it was > 100 µM (inactive).
Regarding `CC(C)N(C(=O)C12C3(C(=O)C(C)(C)C)C4C5(C#N)C3C1(C(=O)C(C)(C)C)C5C42C(=O)C(C)(C)C)C(C)C` (centres undefined), the GI50 with DU-145, in the assay with A498, in the assay with OVCAR-8, in the assay on T47D, in the assay on SK-MEL-2 and in the assay on SK-MEL-5 was > 100 µM (inactive) in each case. For the same compound, the GI50 is 14.1 µM (inactive) in the assay on SNB-75; > 100 µM (inactive) with HL-60; > 100 µM (inactive) in the assay on U-251; > 100 µM (inactive) in the assay on OVCAR-3; > 100 µM (inactive) with HT-29; > 100 µM (inactive) in the assay on M14. For the same compound, the GI50 in the assay on SK-MEL-28 is > 100 µM (inactive); with NCI-H23, > 100 µM (inactive); with HOP-92, 66.2 µM (inactive); with SR, > 100 µM (inactive); in the assay on KM12, > 100 µM (inactive); in the assay with SW-620, > 100 µM (inactive). The GI50 in the assay with RXF 393 was > 100 µM (inactive).
Regarding `CCCCCNc1nonc1N`, the GI50 in the assay on DU-145 was > 100 µM (inactive); with A498, > 84.9 µM (inactive); in the assay with OVCAR-8, > 100 µM (inactive); in the assay on T47D it was > 100 µM (inactive); in the assay with SK-MEL-2 it was > 100 µM (inactive); in the assay with SK-MEL-5 it was > 100 µM (inactive). Also, the GI50 in the assay with SNB-75, with U-251, with OVCAR-3, in the assay on HT-29, in the assay on NCI-H226 and in the assay with M14 was > 100 µM (inactive) in each case. The GI50 with SK-MEL-28, in the assay with NCI-H23, with HOP-92, in the assay on SR, in the assay on KM12 and in the assay with SW-620 was > 100 µM (inactive) throughout. The GI50 in the assay on RXF 393 is > 100 µM (inactive).
Regarding `CCOC(=O)c1cn(-c2ccc([N+](=O)[O-])cc2)c(=S)n2c1nc1ccccc12`, the GI50 in the assay with DU-145 was 81.7 µM (inactive); in the assay with A498 it was 20.6 µM (inactive); with OVCAR-8, 35.5 µM (inactive); in the assay on T47D it was 58.6 µM (inactive); in the assay with SK-MEL-2, 17.8 µM (inactive); in the assay with SK-MEL-5 it was 21.9 µM (inactive). Also, the GI50 in the assay with SNB-75 is > 100 µM (inactive); with U-251 it was 36.2 µM (inactive); in the assay with OVCAR-3, 53.7 µM (inactive); in the assay with HT-29, 26.4 µM (inactive); with NCI-H226, 37.2 µM (inactive); in the assay with M14, 61 µM (inactive). Also, the GI50 in the assay on SK-MEL-28 is 49.9 µM (inactive); in the assay on NCI-H23, 34.1 µM (inactive); with HOP-92 it was 18.5 µM (inactive); in the assay with SR it was 39.5 µM (inactive); in the assay with KM12, 30.1 µM (inactive); in the assay with SW-620 it was 47 µM (inactive). Moreover, the GI50 with RXF 393 is 63.5 µM (inactive).
`CC1=NN(c2cccc(Cl)c2)C2(SCC(=O)N2c2nc3ccccc3s2)/C1=C\c1ccc(N(C)C)cc1` (centres undefined): the GI50 in the assay on DU-145 was > 100 µM (inactive); in the assay on A498, 27.9 µM (inactive); with OVCAR-8 it was 58.9 µM (inactive); in the assay on T47D it was 34.8 µM (inactive); with SK-MEL-2, 23.9 µM (inactive); in the assay on SK-MEL-5, 39.7 µM (inactive). For the same compound, the GI50 in the assay with HL-60 was > 100 µM (inactive); in the assay with U-251 it was 35.7 µM (inactive); with OVCAR-3, 48.5 µM (inactive); in the assay on HT-29, > 100 µM (inactive); in the assay on NCI-H226, 76 µM (inactive); in the assay with M14, > 100 µM (inactive). In addition, the GI50 with SK-MEL-28 is > 100 µM (inactive); in the assay on NCI-H23, 31.8 µM (inactive); in the assay with HOP-92 it was 23.7 µM (inactive); in the assay on SR, 58.5 µM (inactive); with KM12, > 100 µM (inactive); with SW-620 it was > 100 µM (inactive). Moreover, the GI50 in the assay with RXF 393 is 21.8 µM (inactive).
